Measured values from US11274092B2, “Potassium channel inhibitors” (ACESION PHARMA ApS, priority 2016, dated 2022).

Biological target: T1, human SK3 channel (hKCa2.3) (Homo sapiens, UniProt Q9UGI6)
T1 construct: expressed in transfected cells
Assay: Automated whole cell patch-clamp (QPatch 16 HT), inhibition of SK3 current
Format: cell-based
Conditions: HEK-293 cells stably expressing hKCa2.3; symmetrical K+ solutions, free calcium 400 nM; effects normalized to N-methyl bicuculline
Protocol: Automated whole cell patch-clamp recordings were performed using a QPatch 16 HT system and single-hole Qplates (Biolin Scientific, Sophion, Denmark) on HEK-293 cells stably expressing the human SK3 channel (hKCa2.3). Cells were cultured and prepared for experiments using normal cell culturing procedures. A total of 4-5 million cells were used per experiment. The Qpatch automatically generates giga sealing, whole-cell formation, compound application and recording of current. hKCa2.3 currents were recorded in symmetrical K^+ solutions, with an intracellular solution consisting of in mM: KCl 108; KOH/EGTA (ethylene glycol-bis(2-aminoethylether)-N,N,N′,N′-tetraacetic acid) 31.25/10; CaCl2) 8.1; MgCl2 1.2; HEPES (2-[4-(2-hydroxyethyl)piperazin-1-yl]ethanesulfonic acid) 10; KOH 15, pH adjusted to pH=7.2 with HCl. The free calcium concentration was calculated to 400 nM. The extracellular solution consisted of in mM: KCl 150; CaCl2) 0.1; MgCl2 3; HEPES 10; Glucose 10, pH=7.4 with KOH. The cells were held at 0 mV and hKCa2.3 currents were elicited by a linear voltage ramp from […] (200 ms in duration) applied every 5th second. The compound application protocol consisted of 12 recording periods lasting from 50-200 s: 1) Baseline recordings in extracellular solution; 2) Application of the positive control N-methyl bicuculline (100 μM), which is characterized by full efficacy, fast on- and off-rate; 3-4) Wash-out; 5-9) Increasing concentrations of test compound to establish an IC50 value; 10-11) Wash-out; 12) positive control with compound NS8593 (N-[(1R)-1,2,3,4-tetrahydro-1-naphthalenyl]-1H-benzimidazol-2-amine) (1 μM). Data were sampled at 10 kHz, 4th order Bessel filter, cut-off frequency 3 kHz. Currents were compensated for run-down. Potency was quantified as the concentration needed to inhibit half of the SK channel activity and reported as an IC50 value. All effects of compounds of the present invention as tested were normalized to the observed inhibitory effect of N-methyl bicuculline.

SMILES	IC50 [µM]
COC[C@H](NC(=O)CC(Nc1nc2ccccc2[nH]1)c1cccc(SC(F)(F)F)c1)c1ccccc1 (single isomer, unassigned) [Example 70a]	< 10
O=C(C(Nc1nc2ccccc2[nH]1)c1cccc(C(F)(F)F)c1)N1CCC1 (centres unmarked) [Example 34, 1-(azetidin-1-yl)-2-[(1H-1,3-benzodiazol-2-yl)amino]-2-[3-(trifluoromethyl)phenyl]ethan-1-one]	< 10
CCN(CCSC)C(=O)CC(Nc1nc2c(CO)cccc2[nH]1)c1cccc(C(F)(F)F)c1 (centres unmarked) [Example 58, N-ethyl-3-{[4-(hydroxymethyl)-1H-1,3-benzodiazol-2-yl]amino}-N-[2-(methylsulfanyl)ethyl]-3-[3-(trifluoromethyl)phenyl]propanamide]	< 10
O=C(CC(Nc1nc2ccccc2[nH]1)c1cccc(OC(F)(F)F)c1)NCCOC(F)(F)F (centres unmarked) [Example 83, 3-[(1H-1,3-benzodiazol-2-yl)amino]-N-[2-(trifluoromethoxy)ethyl]-3-[3-(trifluoromethoxy)phenyl]propanamide]	< 10
O=C(CC(Nc1nc2ccccc2[nH]1)c1cccc(SC(F)(F)F)c1)NCCOC(F)(F)F (centres unmarked) [Example 81, 3-[(1H-1,3-benzodiazol-2-yl)amino]-N-[2-(trifluoromethoxy)ethyl]-3-{3-[(trifluoromethyl)sulfanyl]phenyl}propanamide]	< 10
CCOC(=O)NCc1ccc2[nH]c(NC(CC(=O)N(CC)CCO)c3cccc(C(F)(F)F)c3)nc2c1 (centres unmarked) [Example 66, Ethyl N-{[2-({2-[ethyl(2-hydroxyethyl)carbamoyl]-1-[3-(trifluoromethyl)phenyl]ethyl}amino)-1H-1,3-benzodiazol-5-yl]methyl}carbamate]	10 to 100
CCS(=O)(=O)NCCNC(=O)CC(Nc1nc2ccccc2[nH]1)c1cccc(C(F)(F)F)c1 (centres unmarked) [Example 3, 3-[(1H-1,3-benzodiazol-2-yl)amino]-N-(2-ethanesulfonamidoethyl)-3-[3-(trifluoromethyl)phenyl]propanamide]	10 to 100
CN(CC(N)=O)C(=O)CC(Nc1nc2ccccc2[nH]1)c1cccc(C(F)(F)F)c1 (centres unmarked) [Example 60, 3-[(1H-1,3-benzodiazol-2-yl)amino]-N-(carbamoylmethyl)-N-methyl-3-[3-(trifluoromethyl)phenyl]propanamide]	10 to 100
O=C(CC(Nc1nc2ccccc2[nH]1)c1cccc(C(F)(F)F)c1)NCCOCC(F)(F)F (centres unmarked) [Example 68, 3-[(1H-1,3-benzodiazol-2-yl)amino]-N-[2-(2,2,2-trifluoroethoxy)ethyl]-3-[3-(trifluoromethyl)phenyl]propanamide]	< 10
O=C(CC(Nc1nc2ccccc2[nH]1)c1cccc(C(F)(F)F)c1)NCC1COC1 (centres unmarked) [Example 7, 3-[(1H-1,3-benzodiazol-2-yl)amino]-N-(oxetan-3-ylmethyl)-3-[3-(trifluoromethyl)phenyl]propanamide]	10 to 100
CCN(CCN(C)C)C(=O)CC(Nc1nc2ccccc2[nH]1)c1cccc(C(F)(F)F)c1 (centres unmarked) [Example 45, 3-[(1H-1,3-benzodiazol-2-yl)amino]-N-[2-(dimethylamino)ethyl]-N-ethyl-3-[3-(trifluoromethyl)phenyl]propanamide]	10 to 100
O=C(NC1COC1)C(Nc1nc2ccccc2[nH]1)c1cccc(C(F)(F)F)c1 (centres unmarked) [Example 35, 2-[(1H-1,3-benzodiazol-2-yl)amino]-N-(oxetan-3-yl)-2-[3-(trifluoromethyl)phenyl]acetamide]	10 to 100
N#CCNC(=O)CC(Nc1nc2ccccc2[nH]1)c1cccc(C(F)(F)F)c1 (centres unmarked) [Example 21, 3-[(1H-1,3-benzodiazol-2-yl)amino]-N-(cyanomethyl)-3-[3-(trifluoromethyl)phenyl]propanamide]	< 10
COCCNC(=O)CC(Nc1nc2ccccc2[nH]1)c1cccc(SC2CCC2)c1 (centres unmarked) [Example 87, 3-[(1H-1,3-benzodiazol-2-yl)amino]-3-[3-(cyclobutylsulfanyl)phenyl]-N-(2-methoxyethyl)propanamide]	< 10
